This note sets out measurements from patent publication EP1763300B1 (priority 2004, dated 2006).

In brackets after ≈: the same amount, converted by molar mass.

Holding throughout (assay type): physicochemical
Data set [1] in a line: Solubilisation with polymer of Herstellungsbeispiel 2 by Verfahren 1 (solid solution), HPLC-UV. The note with it: buffer with polymer, pH 6, 1440 min. The protocol: 0,5 g eines Polymers und 0,1 g einer ausgewählten Substanz wurden in DMF (ca. 20 ml) gelöst. Das Gemisch wurde gerührt und DMF wurde vollständig evaporiert, so daß eine […] der organischen Moleküle in dem Polymer erhalten wurde. […] […] Nach der Filtration wurde die Lösung mittels HPLC analysiert (Detektor UV) und die Konzentration der Substanzen bestimmt.

The nature of data set [2]: Solubilisation with polymer of Herstellungsbeispiel 1 by Verfahren 1 (solid solution), HPLC-UV. Particulars: buffer with polymer, pH 6, 1440 min.
The nature of data set [3]: Solubility in distilled water. Particulars: no polymer, read-out: Löslichkeit in destilliertem Wasser. An excerpt:
Verschiedene schlecht wasserlösliche Substanzen wurden eingesetzt, um die Eignung der erfindungsgemäßen Polymere als Lösungsvermittler zu testen. Tabelle 1

As for `CCOC(=O)/C(Cl)=C/c1cc(N2C(=O)C3=C(CCCC3)C2=O)ccc1Cl` [Cinidon-Ethyl], in data set [1], the “in Gegenwart von Polymer” value is 57 mg/L. Besides, the “Löslichkeit in Gegenwart von Polymer” value in data set [2] was 0,5 mg/l. In addition, the solubility in data set [3] amounted to 0.057 µg/mL (≈ 0.145 µM).

For the molecule `CC1(C)CCC(Cc2ccc(Cl)cc2)C1(O)Cn1cncn1` (centres unmarked) [Metconazol], the solubility in data set [3] was determined as 15 µg/mL (≈ 46.9 µM).

Regarding `CN1C(C(=O)Nc2ccccn2)=C(O)c2ccccc2S1(=O)=O` [Piroxicam], in data set [1], the “in Gegenwart von Polymer” value worked out at 167 mg/L. Besides, the “Löslichkeit in Gegenwart von Polymer” value in data set [2] was 92 mg/L. Further, the solubility in data set [3] is 23 µg/mL (≈ 69.4 µM).

Regarding `COC(=O)N(OC)c1ccccc1COc1ccn(-c2ccc(Cl)cc2)n1` [Pyraclostrobin], the solubility in data set [3] is 2.4 µg/mL (≈ 6.19 µM).

Take `CCCCC(CC)COC(=O)c1ccc(Nc2nc(Nc3ccc(C(=O)OCC(CC)CCCC)cc3)nc(Nc3ccc(C(=O)OCC(CC)CCCC)cc3)n2)cc1` (centres unmarked) [Uvinul T150®, Octyltriazon]: in data set [1], the “in Gegenwart von Polymer” value was 79 mg/L. Moreover, the “Löslichkeit in Gegenwart von Polymer” value in data set [2] is 2,3 mg/l. Moreover, the solubility in data set [3] worked out at 0.007 µg/mL (≈ 0.0085 µM).
